Experimental data from US20070099983A1, “Aminocyclohexyl ether compounds and uses thereof” (Cardiome Pharma Corp., priority 2003, published 2007).
Counter-ions that a name gives are not always drawn.

Tested on: conscious rats
Assay: Determination of CNS toxicity: convulsions in conscious rats on increasing i.v. infusion
Type: in vivo
[1] = minimum i.v. infusion rate at which partial or complete convulsions are observed, conscious rats, maximum rate 64
[2] = total amount of drug infused when partial or complete convulsions are first observed, conscious rats

| SMILES | cum conv dose (rat, in vivo) [µmol/kg] | convulsion dose (rat, in vivo, iv) [µmol/kg/min] | convulsion dose [1] [µmol/kg/min] | cum conv dose [2] [µmol/kg] |
| --- | --- | --- | --- | --- |
| Cl.FC(F)(F)c1ccccc1CCO[C@H]1CCCC[C@H]1N1CCOCC1 (racemic) [Compound 42, (1R,2S)/(1S,2R)-2-(4-morpholinyl)-1-[(2-trifluoromethyl)-phenethoxy]-cyclohexane monohydrochloride] | 102 | 16 |  |  |
| COc1ccc(CCO[C@H]2CCCC[C@@H]2N2CC[C@@H](O)C2)cc1OC.Cl [Compound 2, (1S,2S)-2-[(3R)-Hydroxypyrrolidinyl]-1-(3,4-dimethoxyphenethoxy)cyclohexane monohydrochloride] | 500.67 | 64 |  |  |
| COc1ccc(CCO[C@H]2CCCCC2N2CCC(O)C2)cc1OC (stereo partly drawn) [Compound 3, (1R,2R)/(1S,2S)-2-[(3R)/(3S)-Hydroxypyrrolidinyl]-1-(3,4-dimethoxyphenethoxy)-cyclohexane monohydrochloride] | 502 | 64 |  |  |
| COc1ccc(CCO[C@H]2CCCCC2N2CC[C@@H](O)C2)cc1OC.Cl (stereo partly drawn) [Compound 4, (1R,2R)/(1S,2S)-2-[(3R)-Hydroxypyrrolidinyl]-1-(3,4-dimethoxyphenethoxy)-cyclohexane monohydrochloride] | 502 | 64 |  |  |
| COc1ccc(CCO[C@H]2CCCCC2N2CC[C@H](O)C2)cc1OC.Cl (stereo partly drawn) [Compound 5, (1R,2R)/(1S,2S)-2-[(3S)-Hydroxypyrrolidinyl]-1-(3,4-dimethoxyphenethoxy)-cyclohexane monohydrochloride] | 438 | 64 |  |  |
| COc1ccc(CCO[C@@H]2CCCC[C@H]2N2CC[C@H](O)C2)cc1OC.Cl [Compound 6, (1R,2R)-2-[(3S)-Hydroxypyrrolidinyl]-1-(3,4-dimethoxyphenethoxy) cyclohexane monohydrochloride] | 472.24 | 64 |  |  |
| COc1ccc(CCO[C@H]2CCCC[C@@H]2N2CC[C@H](O)C2)cc1OC.Cl [Compound 7, (1S,2S)-2-[(3S)-Hydroxypyrrolidinyl]-1-(3,4-dimethoxyphenethoxy)cyclohexane monohydrochloride] | 451.67 | 64 |  |  |
| COc1ccc(CCOC2CCCC[C@H]2N2CCOCC2)cc1OC.Cl (stereo partly drawn) [Compound 8, 4-{(1R,2R)/(1S,2S)-2-[2-(3,4-dimethoxy-phenyl)ethoxy]cyclohexyl}morpholine hydrochloride] | 113 | 16 |  |  |
| COc1ccc(CCO[C@H]2CCCCC2N2CCC3(C2)OCCO3)cc1OC.Cl (stereo partly drawn) [Compound 9, 7-{(1R,2R)/(1S,2S)-2-[2-(3,4-dimethoxyphenyl)-ethoxy]cyclohexyl}-1,4-dioxa-7-azaspiro[4.4]nonane hydrochloride] |  |  | 16 | 91.33 |
| COc1ccc(CCO[C@H]2CCCCC2N2CCCC2)cc1OC.Cl (stereo partly drawn) [Compound 10, 1-{(1R,2R)/(1S,2S)-2-[2-(3,4-dimethoxyphenyl)-ethoxy]cyclohexyl}-pyrrolidine hydrochloride] | 118 | 21.33 |  |  |
| COc1ccc(CCO[C@H]2CCCCC2N2CC[C@H](OCc3ccccc3)C2)cc1OC.Cl (stereo partly drawn) [Compound 11, (3S)-3-benzyloxy-1-{(1R,2R)/(1S,2S)-2-[2-(3,4-dimethoxyphenyl)-ethoxy]cyclohexyl}-pyrrolidine hydrochloride] | 38.13 | 8 |  |  |
| COc1ccc(CCO[C@H]2CCCCC2N2CC[C@@H](OCc3ccccc3)C2)cc1OC.Cl (stereo partly drawn) [Compound 12, (3R)-3-benzyloxy-1-{(1R,2R)/(1S,2S)-2-[2-(3,4-dimethoxyphenyl)-ethoxy]cyclohexyl}-pyrrolidine hydrochloride] | 51.1 | 8 |  |  |
| COc1ccc(CCO[C@H]2CCCCC2N2CC[C@H](OC(C)=O)C2)cc1OC.Cl (stereo partly drawn) [Compound 13, (3S)-1-{(1R,2R)/(1S,2S)-2-[2-(3,4-dimethoxyphenyl)-ethoxy]cyclohexyl}-pyrrolidin-3-yl acetate hydrochloride] | 51.9 | 8 |  |  |
| COc1ccc(CCOC2CCCC[C@H]2N2CCC(F)C2)cc1OC.Cl (stereo partly drawn) [Compound 14, (3R)/(3S)-1-{(1R,2R)/(1S,2S)-2-[2-(3,4-dimethoxyphenyl)-ethoxy]cyclohexyl}-3-fluoropyrrolidine hydrochloride] | 63.33 | 10.67 |  |  |
| COc1ccc(CCO[C@H]2CCCCC2N2CCC[C@@H]2CO)cc1OC.Cl (stereo partly drawn) [Compound 15, {(2R)-1-{(1R,2R)/(1S,2S)-2-[2-(3,4-dimethoxyphenyl)-ethoxy]cyclohexyl}-pyrrolidin-2-yl}methanol hydrochloride] | 142.33 | 16 |  |  |
| COc1ccc(CCOC2CCCC[C@H]2N2CC=CC2)cc1OC.Cl (stereo partly drawn) [Compound 16, 1-{(1R,2R)/(1S,2S)-2-[2-(3,4-dimethoxyphenyl)-ethoxy]cyclohexyl}-2,5-dihydro-1H-pyrrole hydrochloride] | 44.4 | 8 |  |  |
| COc1ccc(CCO[C@@H]2CCCC[C@H]2N2CC[C@@H](OC(C)=O)C2)cc1OC.Cl [Compound 17, (3R)-1-{(1R,2R)-2-[2-(3,4-dimethoxyphenyl)-ethoxy]cyclohexyl}-pyrrolidin-3-yl acetate hydrochloride] | 74.3 | 13.33 |  |  |
| COc1ccc(CCOC2CCCC[C@H]2N2CCC(=O)C2)cc1OC.Cl (stereo partly drawn) [Compound 18, 1-{(1R,2R)/(1S,2S)-2-[2-(3,4-dimethoxyphenyl)-ethoxy]cyclohexyl}-pyrrolidin-3-one hydrochloride] | 235 | 32 |  |  |
| COc1ccc(CCCO[C@H]2CCCCC2N2CCOCC2)cc1OC.Cl (stereo partly drawn) [Compound 19, 4-{(1R,2R)/(1S,2S)-2-[3-(3,4-dimethoxyphenyl)-propoxy]cyclohexyl}morpholine hydrochloride] | 109 | 16 |  |  |
| COc1ccc(CCCCO[C@H]2CCCCC2N2CCOCC2)cc1OC.Cl (stereo partly drawn) [Compound 20, 4-{(1R,2R)/(1S,2S)-2-[4-(3,4-dimethoxyphenyl)-butoxy]cyclohexyl}morpholine hydrochloride] | 66.8 | 10.7 |  |  |
| COc1cc(CCCO[C@H]2CCCCC2N2CC[C@@H](O)C2)cc(Cl)c1OC.Cl (stereo partly drawn) [Compound 21, (3R)-1-{(1R,2R)/(1S,2S)-2-[3-(3-chloro-4,5-dimethoxyphenyl)-propoxy]cyclohexyl}pyrrolidin-3-ol hydrochloride] | 90.9 | 13.33 |  |  |
| COc1ccc(CCOC2CCCC[C@H]2N2CCN(C(=O)Cc3ccc(OC)c(OC)c3)CC2)cc1OC.Cl (stereo partly drawn) [Compound 22, 1-[(3,4-dimethoxyphenyl)acetyl]-4-{(1R,2R)/(1S,2S)-2-[2-(3,4-dimethoxyphenyl)-ethoxy]cyclohexyl}-piperazine hydrochloride] |  |  | 21.33 | 133 |
